From the supplement of paper PMC10307832 come the findings set out here.

Test in all cases: relative viability (nuclei count vs DMSO), 5 days (fraction); higher = more cells survive
Compound in assay [1]: C1=CC=C2C(=C1)C=CC(=C2SSC3=C(C=CC4=CC=CC=C43)O)O [IPA-3]
In short, it runs like this: (§1)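 Only plates meeting two conditions passed: control CV below 25% and at least one doubling. Lung cancer cell lines, kept overnight at 37 °C in 1536-well plates, were pinned with five library-drug doses (not always all listed) √10 apart on vehicle-anchored plates and grown 5 days without medium change. A one-step fix, permeabilisation and Hoechst stain preceded 4× imaging and MetaXpress nuclear counting. Viability equals treated-well nuclei divided by vehicle-well nuclei, as the median over plates.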

Compound in assay [2]: Cc1ccc(-n2nc(C(C)(C)C)cc2NC(=O)Nc2ccc(OCCN3CCOCC3)c3ccccc23)cc1 [Doramapimod]
An outline of the steps:
as §1

Compound in assay [3]: Cn1c(Nc2ccc(C(F)(F)F)cc2)nc2cc(Oc3ccnc(-c4ncc(C(F)(F)F)[nH]4)c3)ccc21 [RAF265]
An outline of the steps:
as §1

Compound in assay [4]: C1=CC=C2C(=C1)C=CC(=C2SSC3=C(C=CC4=CC=CC=C43)O)O [IPA-3] + Cc1nc(NC(=O)N2CCC[C@H]2C(N)=O)sc1-c1ccnc(C(C)(C)C(F)(F)F)c1 [Alpelisib] (partner 2 µM)
An outline of the steps:
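Five library-drug doses in √10 steps were combined with a fixed anchor-drug dose, or a single drug was given alone, by pin tool to lung cancer cell lines in 1536-well plates the day after seeding. Nuclei were stained and counted after 5 days. Relative viability is the nuclei count in treated wells over that in vehicle wells, taken as the median of duplicate plates.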

On to UMC-11, for which the relative viability is 1.08 in assay [1] (0.2 µM); 0.932 in assay [1] (0.6325 µM); 0.967 in assay [1] (2 µM); 0.916 in assay [1] (6.325 µM); 1.09 in assay [1] (20 µM); 0.904 in assay [2] (0.02 µM). Besides, the relative viability came out at 0.934 in assay [2] (0.06325 µM); 0.956 in assay [2] (0.2 µM); 0.782 in assay [2] (0.6325 µM); 0.841 in assay [2] (2 µM); 0.975 in assay [3] (0.01 µM); 0.95 in assay [3] (0.03162 µM). Moreover, the relative viability in assay [3] (0.1 µM) was found to be 0.942; in assay [3] (0.3162 µM) it was 0.948; in assay [3] (1 µM), 0.872; in assay [4] (first compound 0.2 µM), 1.22; in assay [4] (first compound 0.6325 µM), 0.962; in assay [4] (first compound 2 µM) it was 1.07. In addition, the relative viability in assay [4] (first compound 6.325 µM) came to 1.01; in assay [4] (first compound 20 µM) it was 1.07.
